{"source": "paper PMC8903829", "about": "(eLife, 2022)", "format_in_all_cases": "in vivo, mouse", "key": {"Scn8a^N1768D/+ mice": {"test_system": "Scn8a^N1768D/+ mice", "test": "Modified 6 Hz psychomotor seizure assay", "experimental": "(§1) Phenytoin was formulated in physiologic saline and was administered intraperitoneally (i.p.) using a 25-gauge needle at a dose volume of 10 mL/kg. All compounds were administered 2 hr prior to electrical seizure induction for all seizure models employed in this study.\nScn8a^N1768D/+heterozygous mice were tested at 5 weeks of age (p35). The modified 6 Hz seizure assay in Scn8a^N1768D/+heterozygous mice was adapted from the traditional 6 Hz assay psychomotor seizure assay to provide a measure of in vivo on target (NaV1.6 mediated) efficacy ([Barton et al., 2001]). The modified assay used a low frequency (6 Hz) but long-duration stimulation (3 s) to induce seizures. […] An electroshock (6 Hz, 12 mA) was delivered for 3 s (at 0.3-ms pulse interval) by corneal electrodes (Electro Convulsive Therapy Unit 57,800 from Ugo Basile). Immediately prior to the electroshock, the animals’ eyes were anesthetized with a drop of Alcaine (0.5% proparacaine hydrochloride).\nAn animal was considered protected in the assay upon prevention of GTC with hindlimb extension and was then scored ‘0’. An animal displaying GTC with hindlimb extension was considered not protected and is then scored ‘1’. The experimenter scoring the seizure behavior was blinded to the treatment."}, "wild-type mice (CF-1)": {"test_system": "wild-type mice (CF-1)", "test": "DC-Maximal electroshock seizure assay (DC-MES)", "experimental": "as §1\nThe maximal electroshock seizure (MES) assay has been extensively used in the search for anticonvulsant substances ([Löscher et al., 1991]; [Piredda et al., 1985]; [White et al., 1995]). The MES assay is sensitive to nonselective NaV inhibitors. It is considered a model for generalized tonic-clonic (GTC) seizures and provides an assessment of seizure spread. Briefly, an electroshock of direct current (DC) was delivered by corneal electrodes (Electro Convulsive Therapy Unit 57,800 from Ugo Basile). The parameters of stimulation were different between mice and rats. In CF1 mice aged 9–12 weeks, a direct current of 50 mA (60 Hz) was delivered for 0.2 s (pulse width of 0.5ms), whereas in Sprague Dawley (SD) rats aged 5–6 weeks, a direct current of 150 mA (60 Hz) was delivered for 0.3 s (pulse width of 0.5ms). Immediately prior to the electroshock, the animals’ eyes were anesthetized with a drop of Alcaine (0.5% proparacaine hydrochloride).\nAn animal was considered protected in the assay in the absence of a GTC with hindlimb extension and is then scored ‘0’. An animal displaying GTC with hindlimb extension was considered not protected and is then scored ‘1’. The experimenter scoring the seizure behavior was blinded to the treatment."}, "[1]": {"test": "Bioanalytical assessment of plasma and brain concentrations after 6 Hz assay", "settings": "mouse, oral, SCN8A mouse 6HZ", "experimental": "Approximately 0.5 mL of blood was collected from each mouse at the end of the assay via cardiac puncture under deep anesthesia. The blood samples were collected in a syringe and transferred to tubes containing EDTA. Blood was stored at 4 °C until centrifuged within 30 min of collection. Plasma was harvested and placed on dry ice and stored in a freezer set to maintain a temperature of –70°C to –80°C until analysis. Brains were harvested immediately after blood collection and placed on dry ice prior to storage in a freezer set to maintain a temperature of –70°C to –80°C until analysis.\nExtraction of plasma samples was carried out by protein precipitation using acetonitrile. Plasma samples (50 µL) were mixed with 50 µL of internal standard (IS) solution in water followed by addition of 10 µL of concentrated ortho-phosphoric acid and 200 µL of acetonitrile. Samples were vortexed for 30 seconds, centrifuged at 13,000 rpm for 20 min, decanted in to a 96-well plate, and further centrifuged at 4000 rpm for 20 min. The samples were analyzed by UHPLC-ESI-MS/MS as described below.\nPrior to extraction, pre-weighed whole brains were homogenized in 1:1 acetonitrile/water (v/v) (4 mL per mouse brain) using an IKA T18 ULTRA-TURRAX Homogenizer at the setting of 4 for approximately 2 min. The homogenate was centrifuged at 13,000 rpm for 20 min and 50 µL of the supernatant were treated exactly as described above for plasma samples. […]\nSamples were analyzed by UHPLC-ESI MS/MS using a TQ-5500 Sciex triple quadrupole mass spectrometer equipped with a Shimadzu Nexera UHPLC pump and auto-sampler system using an ACE C18 PFP, 2.50 × 50 mm, 1.7 µm particle size column and gradient elution consisting of solvent A (0.1% formic acid in water) and solvent B (0.1% formic acid in acetonitrile) starting at 20% B from 0 min to 0.4 min and then increased to 100% B from 0.4 min to 0.6 min. At 2.0 min, the mobile phase composition was switched back to […] for 1 min. The flow rate used throughout the experiment was […]. […] The UHPLC-ESI MS/MS system was controlled by Analyst 1.6.\nSample concentrations were determined using a linear calibration function, weighted 1 /X, generated by the regression of analyte to IS peak area ratios in the standard samples to their respective concentrations. Acceptance criteria for the analytical run required that the back calculated values of the standards and the QC samples fell within ±20% of their nominal values, except for the lowest standard or lower limit of quantitation (LLOQ), for which the acceptance criterion was ±25%. At least 6 out of 12 standard points had to show back-calculated values within ±20% of their nominal concentrations for the calibration to be accepted. At least three QC samples, one at each level, had to show back-calculated values within ±20% of their nominal concentrations for the whole sample batch to be valid."}}, "note": "Like-named read-outs stand apart in the source and are kept apart here.", "data": [{"smiles": "NC(=O)N1c2ccccc2C=Cc2ccccc21", "note": "[carbamazepine, Carbamazepine, reference compound]", "values": [{"measurement": "EC50", "setting": "Scn8a^N1768D/+ mice; Mus musculus, Scn8a^N1768D/+ 6 Hz model, 2 hr post dose (oral; phenytoin i.p.), read-out: brain EC50", "result": 9.4, "unit": "µM"}, {"measurement": "SCN8A mouse 6HZ Fraction of animals seizing", "setting": "Scn8a^N1768D/+ mice; Study15064, 3 mg/kg", "result": 0.5}, {"measurement": "SCN8A mouse 6HZ Fraction of animals seizing", "setting": "Scn8a^N1768D/+ mice; Study15064, 10 mg/kg", "result": 0.75}, {"measurement": "SCN8A mouse 6HZ Fraction of animals seizing", "setting": "Scn8a^N1768D/+ mice; Study16152, 3 mg/kg", "result": 0.75}, {"measurement": "SCN8A mouse 6HZ Fraction of animals seizing", "setting": "Scn8a^N1768D/+ mice; Study16152, 10 mg/kg", "result": 0.667}, {"measurement": "SCN8A mouse 6HZ Fraction of animals seizing", "setting": "Scn8a^N1768D/+ mice; Study16152, 30 mg/kg", "result": 0}, {"measurement": "SCN8A mouse 6HZ Fraction of animals seizing", "setting": "Scn8a^N1768D/+ mice; Study16162, 3 mg/kg", "result": 0.8}, {"measurement": "SCN8A mouse 6HZ Fraction of animals seizing", "setting": "Scn8a^N1768D/+ mice; Study16162, 10 mg/kg", "result": 0.4}, {"measurement": "SCN8A mouse 6HZ Fraction of animals seizing", "setting": "Scn8a^N1768D/+ mice; Study16162, 100 mg/kg", "result": 0}, {"measurement": "WT mouse DC-MES acute Fraction of animals seizing", "setting": "wild-type mice (CF-1); Study17131, 10 mg/kg", "result": 0.7143}, {"measurement": "WT mouse DC-MES acute Fraction of animals seizing", "setting": "wild-type mice (CF-1); Study17131, 30 mg/kg", "result": 0.4286}, {"measurement": "WT mouse DC-MES acute Fraction of animals seizing", "setting": "wild-type mice (CF-1); Study17131, 100 mg/kg", "result": 0.1429}, {"measurement": "WT mouse DC-MES acute Fraction of animals seizing", "setting": "wild-type mice (CF-1); Study17134, 10 mg/kg", "result": 0.8571}, {"measurement": "WT mouse DC-MES acute Fraction of animals seizing", "setting": "wild-type mice (CF-1); Study17134, 30 mg/kg", "result": 0.4286}, {"measurement": "EC50", "setting": "wild-type mice (CF-1); WT mouse DC-MES, 2 hr post dose (oral; phenytoin i.p.), read-out: brain EC50", "result": 44, "unit": "µM"}, {"measurement": "concentration at 2 h", "setting": "[1]; Scn8a N1768D/+, brain, 3 mg/kg, Study15064, 3 mg/kg, read-out: Mean [Brain]", "result": 0.943, "unit": "µM"}, {"measurement": "concentration at 2 h", "setting": "[1]; Scn8a N1768D/+, brain, 3 mg/kg, Study16152, 3 mg/kg, read-out: Mean [Brain]", "result": 2.7, "unit": "µM"}, {"measurement": "concentration at 2 h", "setting": "[1]; Scn8a N1768D/+, brain, 3 mg/kg, Study16162, 3 mg/kg, read-out: Mean [Brain]", "result": 4.89, "unit": "µM"}, {"measurement": "concentration at 2 h", "setting": "[1]; Scn8a N1768D/+, brain, 10 mg/kg, Study15064, 10 mg/kg, read-out: Mean [Brain]", "result": 2.24, "unit": "µM"}, {"measurement": "concentration at 2 h", "setting": "[1]; Scn8a N1768D/+, brain, 10 mg/kg, Study16152, 10 mg/kg, read-out: Mean [Brain]", "result": 11.4, "unit": "µM"}, {"measurement": "concentration at 2 h", "setting": "[1]; Scn8a N1768D/+, brain, 10 mg/kg, Study16162, 10 mg/kg, read-out: Mean [Brain]", "result": 15.7, "unit": "µM"}, {"measurement": "concentration at 2 h", "setting": "[1]; Scn8a N1768D/+, brain, 30 mg/kg, Study16152, 30 mg/kg, read-out: Mean [Brain]", "result": 40.7, "unit": "µM"}, {"measurement": "concentration at 2 h", "setting": "[1]; Scn8a N1768D/+, brain, 100 mg/kg, Study16162, 100 mg/kg, read-out: Mean [Brain]", "result": 130, "unit": "µM"}, {"measurement": "concentration at 2 h", "setting": "[1]; Scn8a N1768D/+, plasma, 10 mg/kg, Study16162, 10 mg/kg, read-out: Mean [Palsma]", "result": 20.7, "unit": "µM"}, {"measurement": "concentration at 2 h", "setting": "[1]; Scn8a N1768D/+, plasma, 100 mg/kg, Study16162, 100 mg/kg, read-out: Mean [Palsma]", "result": 154, "unit": "µM"}, {"measurement": "concentration at 2 h", "setting": "[1]; Scn8a^N1768D/+, plasma, 3 mg/kg, Study15064, 3 mg/kg, read-out: Mean [Palsma]", "result": 1.14, "unit": "µM"}, {"measurement": "concentration at 2 h", "setting": "[1]; Scn8a^N1768D/+, plasma, 3 mg/kg, Study16152, 3 mg/kg, read-out: Mean [Palsma]", "result": 4.75, "unit": "µM"}, {"measurement": "concentration at 2 h", "setting": "[1]; Scn8a^N1768D/+, plasma, 3 mg/kg, Study16162, 3 mg/kg, read-out: Mean [Palsma]", "result": 7.46, "unit": "µM"}, {"measurement": "concentration at 2 h", "setting": "[1]; Scn8a^N1768D/+, plasma, 10 mg/kg, Study15064, 10 mg/kg, read-out: Mean [Palsma]", "result": 5.96, "unit": "µM"}, {"measurement": "concentration at 2 h", "setting": "[1]; Scn8a^N1768D/+, plasma, 10 mg/kg, Study16152, 10 mg/kg, read-out: Mean [Palsma]", "result": 15.4, "unit": "µM"}, {"measurement": "concentration at 2 h", "setting": "[1]; Scn8a^N1768D/+, plasma, 30 mg/kg, Study16152, 30 mg/kg, read-out: Mean [Palsma]", "result": 48.7, "unit": "µM"}]}]}
